# Measurements reported in ChEMBL document CHEMBL5726876, “NHE3-binding compounds and methods for inhibiting phosphate transport” (2019).
# Experiment: Cell-based activity under Prompt Conditions: Cell-based activity under Prompt Conditions. Rat or human NHE3-mediated Na+-dependent H+ antiport was measured using a modification of the pH sensitive dye method originally reported by Paradiso (PNAS USA. 81:7436-7440, 1984). Opossum kidney (OK) cells were obtained from the ATCC and propagated per their instructions. The rat NHE3 gene (GenBank M85300) or the human NHE3 gene (GenBank NM_004174.1) was introduced into OK cells via electroporation, and cells were seeded into 96 well plates and grown overnight. Medium was aspirated from the wells, cells were washed twice with NaCl-HEPES buffer (100 mM NaCl, 50 mM HEPES, 10 mM glucose, 5 mM KCl, 2 mM CaCl2, 1 mM MgCl2, pH 7.4), then incubated for 30 min at room temperature with NH4Cl-HEPES buffer (20 mM NH4Cl, 80 mM NaCl, 50 mM HEPES, 5 mM KCl, 2 mM CaCl2, 1 mM MgCl2, pH 7.4) containing 5 μM bis(acetoxymethyl) 3,3′-(3′,6′-bis(acetoxymethoxy)-5-((acetoxymethoxy)carbonyl)-3-oxo-3H-spiro[isobenzofuran-1,9′-xanthene]-2′,7′-diyl)dipropanoate (BCECF-AM).Cells were washed twice with Ammonium free, Na+-free HEPES (100 mM choline, 50 mM HEPES, 10 mM glucose, 5 mM KCl, 2 mM CaCl2, 1 mM MgCl2, pH 7.4) and incubated in the same buffer for 10 minutes at room temperature to lower intracellular pH. […] Initial rates were plotted as the average 2 or more replicates, and pIC50 values were estimated using GraphPad Prism.
smiles,measurement,value
CCC(=O)NC(CCC(=O)NCCOCCOCCOCCNS(=O)(=O)c1cccc([C@@H]2CN(C)Cc3c(Cl)cc(Cl)cc32)c1)(CCC(=O)NCCOCCOCCOCCNS(=O)(=O)c1cccc([C@@H]2CN(C)Cc3c(Cl)cc(Cl)cc32)c1)CCC(=O)NCCOCCOCCOCCNS(=O)(=O)c1cccc([C@@H]2CN(C)Cc3c(Cl)cc(Cl)cc32)c1,IC50,79.4 nM
CN1Cc2c(Cl)cc(Cl)cc2[C@H](c2cccc(S(=O)(=O)NCCOCCOCCOCCNC(=O)CC(CC(=O)NCCOCCOCCOCCNS(=O)(=O)c3cccc([C@@H]4CN(C)Cc5c(Cl)cc(Cl)cc54)c3)C(=O)NCCOCCOCCOCCNS(=O)(=O)c3cccc([C@@H]4CN(C)Cc5c(Cl)cc(Cl)cc54)c3)c2)C1,IC50,31.6 nM
CCCCCCCCCCC(=O)NC(CCC(=O)NCCOCCOCCNS(=O)(=O)c1cccc([C@@H]2CN(C)Cc3c(Cl)cc(Cl)cc32)c1)(CCC(=O)NCCOCCOCCNS(=O)(=O)c1cccc([C@@H]2CN(C)Cc3c(Cl)cc(Cl)cc32)c1)CCC(=O)NCCOCCOCCNS(=O)(=O)c1cccc([C@@H]2CN(C)Cc3c(Cl)cc(Cl)cc32)c1,IC50,< 10000 nM
CN1Cc2c(Cl)cc(Cl)cc2[C@H](c2cccc(S(=O)(=O)NCCOCCOCCNC(=O)N(C)CCCN(CCCN(C)C(=O)NCCOCCOCCNS(=O)(=O)c3cccc([C@@H]4CN(C)Cc5c(Cl)cc(Cl)cc54)c3)CCCN(C)C(=O)NCCOCCOCCNS(=O)(=O)c3cccc([C@@H]4CN(C)Cc5c(Cl)cc(Cl)cc54)c3)c2)C1,IC50,126 nM
CN1Cc2c(Cl)cc(Cl)cc2[C@H](c2cccc(S(=O)(=O)NCCOCCOCCNC(=O)CCC(=O)NCCOCCOCCNS(=O)(=O)c3ccc(O[C@H]4c5ccccc5C[C@@H]4N4CCCCC4)cc3)c2)C1,IC50,31.6 nM
CN1Cc2c(Cl)cc(Cl)cc2[C@H](c2cccc(S(=O)(=O)NCCOCCOCCNC(=O)CN(CCOCCOCCN(CC(=O)NCCOCCOCCNS(=O)(=O)c3cccc([C@@H]4CN(C)Cc5c(Cl)cc(Cl)cc54)c3)CC(=O)NCCOCCOCCNS(=O)(=O)c3cccc([C@@H]4CN(C)Cc5c(Cl)cc(Cl)cc54)c3)CC(=O)NCCOCCOCCNS(=O)(=O)c3cccc([C@@H]4CN(C)Cc5c(Cl)cc(Cl)cc54)c3)c2)C1,IC50,1580 nM
O=C(NCCCCNC(=O)NCCOCCOCCNS(=O)(=O)c1ccc(O[C@H]2c3cc(Cl)cc(Cl)c3C[C@@H]2N2CC[C@@H](O)C2)cc1)NCCOCCOCCNS(=O)(=O)c1ccc(O[C@H]2c3cc(Cl)cc(Cl)c3C[C@@H]2N2CC[C@@H](O)C2)cc1,IC50,< 10000 nM
O=C(NCCOCCOCCNS(=O)(=O)c1ccc(O[C@H]2c3ccccc3C[C@@H]2N2CCCCC2)cc1)c1ccc(C(=O)NCCOCCOCCNS(=O)(=O)c2ccc(O[C@H]3c4ccccc4C[C@@H]3N3CCCCC3)cc2)cc1,IC50,7.94 nM
CCCCCCCCCCC(=O)NCCOCCOCCOCCNS(=O)(=O)c1cccc([C@@H]2CN(C)Cc3c(Cl)cc(Cl)cc32)c1,IC50,< 10000 nM
CN1Cc2c(Cl)cc(Cl)cc2[C@H](c2cccc(S(=O)(=O)NCCOCCOCCNC(=O)NCCCN(CCCNC(=O)NCCOCCOCCNS(=O)(=O)c3cccc([C@@H]4CN(C)Cc5c(Cl)cc(Cl)cc54)c3)CCCNC(=O)NCCOCCOCCNS(=O)(=O)c3cccc([C@@H]4CN(C)Cc5c(Cl)cc(Cl)cc54)c3)c2)C1,IC50,562 nM
CN1Cc2c(Cl)cc(Cl)cc2[C@H](c2cccc(S(=O)(=O)NCCOCCOCCNC(=O)COCC(=O)NCCOCCOCCNS(=O)(=O)c3ccc(O[C@H]4c5ccccc5C[C@@H]4N4CCCCC4)cc3)c2)C1,IC50,25.1 nM
CN1Cc2c(Cl)cc(Cl)cc2[C@H](c2cccc(S(=O)(=O)NCCOCCOCCOCCNC(=O)CCC(N)(CCC(=O)NCCOCCOCCOCCNS(=O)(=O)c3cccc([C@@H]4CN(C)Cc5c(Cl)cc(Cl)cc54)c3)CCC(=O)NCCOCCOCCOCCNS(=O)(=O)c3cccc([C@@H]4CN(C)Cc5c(Cl)cc(Cl)cc54)c3)c2)C1,IC50,63.1 nM
CN1Cc2c(Cl)cc(Cl)cc2[C@H](c2cccc(S(=O)(=O)NCCOCCOCCNC(=O)NCCN(CCNC(=O)NCCOCCOCCNS(=O)(=O)c3cccc([C@@H]4CN(C)Cc5c(Cl)cc(Cl)cc54)c3)C(=O)NCCOCCOCCN)c2)C1,IC50,3.98 nM
CN1Cc2c(Cl)cc(Cl)cc2[C@H](c2cccc(S(=O)(=O)NCCOCCOCCNC(=O)CC(O)(CC(=O)NCCOCCOCCNS(=O)(=O)c3cccc([C@@H]4CN(C)Cc5c(Cl)cc(Cl)cc54)c3)C(=O)NCCOCCOCCNS(=O)(=O)c3cccc([C@@H]4CN(C)Cc5c(Cl)cc(Cl)cc54)c3)c2)C1,IC50,1000 nM
CN1Cc2c(Cl)cc(Cl)cc2[C@H](c2cccc(S(=O)(=O)NCCOCCOCCNC(=O)NCCC[N+](C)(CCCNC(=O)NCCOCCOCCNS(=O)(=O)c3cccc([C@@H]4CN(C)Cc5c(Cl)cc(Cl)cc54)c3)CCCNC(=O)NCCOCCOCCNS(=O)(=O)c3cccc([C@@H]4CN(C)Cc5c(Cl)cc(Cl)cc54)c3)c2)C1,IC50,39.8 nM
CN1Cc2c(Cl)cc(Cl)cc2[C@H](c2cccc(S(=O)(=O)NCCOCCOCCNC(=O)NCCN(CCNC(=O)NCCOCCOCCNS(=O)(=O)c3cccc([C@@H]4CN(C)Cc5c(Cl)cc(Cl)cc54)c3)C(=O)CCCCCCCCCCC(=O)N(CCNC(=O)NCCOCCOCCNS(=O)(=O)c3cccc([C@@H]4CN(C)Cc5c(Cl)cc(Cl)cc54)c3)CCNC(=O)NCCOCCOCCNS(=O)(=O)c3cccc([C@@H]4CN(C)Cc5c(Cl)cc(Cl)cc54)c3)c2)C1,IC50,< 10000 nM
CN1Cc2c(Cl)cc(Cl)cc2[C@H](c2cccc(S(=O)(=O)NCCOCCOCCOCCNC(=O)c3ccc(-c4ccc(Cl)cc4)cc3)c2)C1,IC50,< 10000 nM
C=CC(=O)NCCOCCOCCOCCNS(=O)(=O)c1cccc([C@@H]2CN(C)Cc3c(Cl)cc(Cl)cc32)c1,IC50,200 nM
CN1Cc2c(Cl)cc(Cl)cc2[C@H](c2cccc(S(=O)(=O)NCCOCCOCCNC(=O)CN(CCN(CC(=O)O)CC(=O)NCCOCCOCCNS(=O)(=O)c3cccc([C@@H]4CN(C)Cc5c(Cl)cc(Cl)cc54)c3)CC(=O)O)c2)C1,IC50,12.6 nM
CN1Cc2c(Cl)cc(Cl)cc2[C@H](c2cccc(S(=O)(=O)NCCOCCOCCNC(=O)CN(CCOCCOCCOCCNC(=O)c3ccc(-c4ccc(Cl)cc4)cc3)CC(=O)NCCOCCOCCNS(=O)(=O)c3cccc([C@@H]4CN(C)Cc5c(Cl)cc(Cl)cc54)c3)c2)C1,IC50,1260 nM
CN1Cc2c(Cl)cc(Cl)cc2[C@H](c2cccc(S(=O)(=O)NCCOCCOCCNC(=O)CCN(CCC(=O)NCCOCCOCCNS(=O)(=O)c3cccc([C@@H]4CN(C)Cc5c(Cl)cc(Cl)cc54)c3)CCC(=O)NCCOCCOCCNS(=O)(=O)c3cccc([C@@H]4CN(C)Cc5c(Cl)cc(Cl)cc54)c3)c2)C1,IC50,3160 nM
CN1Cc2c(Cl)cc(Cl)cc2[C@H](c2cccc(S(=O)(=O)NCCOCCOCCOCCNC(=O)CCC(CCC(=O)NCCOCCOCCOCCNS(=O)(=O)c3cccc([C@@H]4CN(C)Cc5c(Cl)cc(Cl)cc54)c3)(CCC(=O)NCCOCCOCCOCCNS(=O)(=O)c3cccc([C@@H]4CN(C)Cc5c(Cl)cc(Cl)cc54)c3)NC(=O)c3ccc(-c4ccc(Cl)cc4)cc3)c2)C1,IC50,5010 nM
O=C(NCCOCCOCCNS(=O)(=O)c1ccc(O[C@H]2c3ccccc3C[C@@H]2N2CCCCC2)cc1)c1cccc(C(=O)NCCOCCOCCNS(=O)(=O)c2ccc(O[C@H]3c4ccccc4C[C@@H]3N3CCCCC3)cc2)c1,IC50,< 10000 nM
O=C(NCCCCNC(=O)NCCOCCOCCNS(=O)(=O)c1ccc(O[C@H]2c3ccccc3C[C@@H]2N2CCCC2)cc1)NCCOCCOCCNS(=O)(=O)c1ccc(O[C@H]2c3ccccc3C[C@@H]2N2CCCC2)cc1,IC50,2.51 nM
O=C(NCCOCCOCCNS(=O)(=O)c1ccc(O[C@H]2c3ccccc3C[C@@H]2N2CCCCC2)cc1)[C@H](O)[C@@H](O)C(=O)NCCOCCOCCNS(=O)(=O)c1ccc(O[C@H]2c3ccccc3C[C@@H]2N2CCCCC2)cc1,IC50,3.98 nM
CN1Cc2c(Cl)cc(Cl)cc2[C@H](c2cccc(S(=O)(=O)NCCOCCOCCNC(=O)NCCN(CCNC(=O)NCCOCCOCCNS(=O)(=O)c3cccc([C@@H]4CN(C)Cc5c(Cl)cc(Cl)cc54)c3)CCNC(=O)NCCOCCOCCNS(=O)(=O)c3cccc([C@@H]4CN(C)Cc5c(Cl)cc(Cl)cc54)c3)c2)C1,IC50,2510 nM
CCCCCCCCOCCOCCOCCOCCOCCOC(=O)NCCOCCOCCOCCNS(=O)(=O)c1cccc([C@@H]2CN(C)Cc3c(Cl)cc(Cl)cc32)c1,IC50,251 nM
CCC(=O)NCCOCCOCCOCCNS(=O)(=O)c1cccc([C@@H]2CN(C)Cc3c(Cl)cc(Cl)cc32)c1,IC50,200 nM
CN1Cc2c(Cl)cc(Cl)cc2[C@H](c2cccc(S(=O)(=O)NCCOCCOCCNC(=O)CCC(N)(CCC(=O)NCCOCCOCCNS(=O)(=O)c3cccc([C@@H]4CN(C)Cc5c(Cl)cc(Cl)cc54)c3)CCC(=O)NCCOCCOCCNS(=O)(=O)c3cccc([C@@H]4CN(C)Cc5c(Cl)cc(Cl)cc54)c3)c2)C1,IC50,85.1 nM
CN1Cc2c(Cl)cc(Cl)cc2[C@H](c2cccc(S(=O)(=O)N(C)CCOCCOCCNC(=O)NCCCN(CCCNC(=O)NCCOCCOCCN(C)S(=O)(=O)c3cccc([C@@H]4CN(C)Cc5c(Cl)cc(Cl)cc54)c3)CCCNC(=O)NCCOCCOCCN(C)S(=O)(=O)c3cccc([C@@H]4CN(C)Cc5c(Cl)cc(Cl)cc54)c3)c2)C1,IC50,100 nM
CN1Cc2c(Cl)cc(Cl)cc2C(c2cccc(S(=O)(=O)NCCOCCOCCOCCNC(=O)CCN(CCC(=O)NCCOCCOCCOCCNS(=O)(=O)c3cccc([C@@H]4CN(C)Cc5c(Cl)cc(Cl)cc54)c3)CCC(=O)NCCOCCOCCOCCNS(=O)(=O)c3cccc([C@@H]4CN(C)Cc5c(Cl)cc(Cl)cc54)c3)c2)C1 (some centres undefined),IC50,316 nM
CCOCCOCCC(=O)N(CCNC(=O)NCCOCCOCCNS(=O)(=O)c1cccc([C@@H]2CN(C)Cc3c(Cl)cc(Cl)cc32)c1)CCNC(=O)NCCOCCOCCNS(=O)(=O)c1cccc([C@@H]2CN(C)Cc3c(Cl)cc(Cl)cc32)c1,IC50,158 nM
CCCCCCCCNC(=O)N(CCNC(=O)NCCOCCOCCNS(=O)(=O)c1cccc([C@@H]2CN(C)Cc3c(Cl)cc(Cl)cc32)c1)CCNC(=O)NCCOCCOCCNS(=O)(=O)c1cccc([C@@H]2CN(C)Cc3c(Cl)cc(Cl)cc32)c1,IC50,1580 nM
CCOCCOCCOCCOCCOCCC(=O)N(CCNC(=O)NCCOCCOCCNS(=O)(=O)c1cccc([C@@H]2CN(C)Cc3c(Cl)cc(Cl)cc32)c1)CCNC(=O)NCCOCCOCCNS(=O)(=O)c1cccc([C@@H]2CN(C)Cc3c(Cl)cc(Cl)cc32)c1,IC50,251 nM
